Measured values reported in patent US8546357B2, “Boron-containing small molecules for controlling ectoparasites” (priority 2011, dated 2013).

Tested on: Lone star tick larvae (Amblyomma americanum)
Assay: Larval immersion microassay against larval-stage Lone star ticks
Conditions: 0.3 mM, larval immersion microassay, 24 hours
Description: The larval immersion microassay was conducted as described in detail in White, et al., J. Med. Entomol. 41: 1034-1042 (2004). Compounds of the invention were formulated in dimethylsulfoxide (DMSO) to prepare a stock solution at a concentration of at least 10 mM. Using 96-well microtiter plates, an aliquot of the mM sample was subsequently diluted in a water-based solution containing 1% ethanol and 0.2% Triton X-100, to obtain the desired concentration (typically 0.3 mM or lower) of compound in a volume of 0.1 ml (minimum n=3 replicates per compound or concentration). Approximately 30-50 Lone star tick larvae (Amblyomma americanum) were submerged into each well containing compounds. After a 30 minute immersion period, larvae were removed with a wide-bore pipette tip in 0.05 ml of fluid, dispensed into a commercial paper tissue biopsy bag which was sealed at the top with a plastic dialysis clip, inverted and allowed to air dry for 60 minutes. Bags containing larvae were then incubated at approximately 27 degrees Celsius and >90% relative humidity. After 24 hours, bags were opened, live and dead larvae were counted and percent larval mortality was calculated.
7 and 8 contain one chiral center each, and are racemic mixtures comprised of approximately 50% R- and 50% S-enantiomer. In vitro and surrogate animal (rat) studies were conducted to evaluate the biological activity of the R- and S-enantiomers of 7 and 8. For the in vitro study, larvae of the Lone star tick (Amblyomma americanum) were exposed to 9, 10, 11 and 12 using the larval immersion microassay at a concentration of no greater than 0.3 mM. Following exposure, larvae were removed, transferred to a tissue biopsy bag and incubated at approximately 27 degrees Celsius and >90% relative humidity. After 24 hours, biopsy bags were opened and the numbers of live and dead larvae were determined

SMILES	In vitro activity at 0.3 mM [%]
Cc1cc(C2=NO[C@](c3cc(Cl)c(Cl)c(Cl)c3)(C(F)(F)F)C2)ccc1C(=O)NCc1ccc2c(c1)B(O)OC2(C)C [Compound 10, (R)—N-((1-hydroxy-3,3-dimethyl-1,3-dihydrobenzo[c][1,2]oxaborol-6-yl)methyl)-2-methyl-4-(5-(3,4,5-trichlorophenyl)-5-(trifluoromethyl)-4,5-dihydroisoxazol-3-yl)benzamide]	0.0
Cc1cc(C2=NO[C@](c3cc(Cl)c(F)c(Cl)c3)(C(F)(F)F)C2)ccc1C(=O)NCc1ccc2c(c1)B(O)OC2(C)C [Compound 12, (R)-4-(5-(3,5-Dichloro-4-fluorophenyl)-5-(trifluoromethyl)-4,5-dihydroisoxazol-3-yl)-N-((1-hydroxy-3,3-dimethyl-1,3-dihydrobenzo[c][1,2]oxaborol-6-yl)methyl)-2-methylbenzamide]	0.0

Same assay, conditions: Amblyomma americanum, 24 h, read-out: activity (percent larval mortality)

SMILES	mortality at 300 µM [%]
Cc1cc(C2=NOC(c3cc(Cl)c(Cl)c(Cl)c3)(C(F)(F)F)C2)ccc1C(=O)NCc1ccc2c(c1)C(C)(C)OB2O (centres unmarked) [Compound 1, N-((1-Hydroxy-3,3-dimethyl-1,3-dihydrobenzo[c][1,2]oxaborol-5-yl)methyl)-2-methyl-4-(5-(3,4,5-trichlorophenyl)-5-(trifluoromethyl)-4,5-dihydroisoxazol-3-yl)benzamide]	≥ 80
Cc1cc(C2=NOC(c3cc(Cl)cc(Cl)c3)(C(F)(F)F)C2)ccc1C(=O)NCc1ccc2c(c1)C(C)(C)OB2O (centres unmarked) [Compound 2, 4-(5-(3,5-Dichlorophenyl)-5-(trifluoromethyl)-4,5-dihydroisoxazol-3-yl)-N-((1-hydroxy-3,3-dimethyl-1,3-dihydrobenzo[c][1,2]oxaborol-5-yl)methyl)-2-methylbenzamide]	≥ 80
Cc1cc(C2=NOC(c3cc(Cl)cc(Cl)c3)(C(F)(F)F)C2)ccc1C(=O)NCc1ccc2c(c1)B(O)OC2 (centres unmarked) [Compound 4, 4-(5-(3,5-Dichlorophenyl)-5-(trifluoromethyl)-4,5-dihydroisoxazol-3-yl)-N-((1-hydroxy-1,3-dihydrobenzo[c][1,2]oxaborol-6-yl)methyl)-2-methylbenzamide]	≥ 80
CCC1(CC)OB(O)c2cc(CNC(=O)c3ccc(C4=NOC(c5cc(Cl)cc(Cl)c5)(C(F)(F)F)C4)cc3C)ccc21 (centres unmarked) [Compound 13, 4-(5-(3,5-Dichlorophenyl)-5-(trifluoromethyl)-4,5-dihydroisoxazol-3-yl)-N-((3,3-diethyl-1-hydroxy-1,3-dihydrobenzo[c][1,2]oxaborol-6-yl)methyl)-2-methylbenzamide]	≥ 80
CCC1(CC)OB(O)c2cc(CNC(=O)c3ccc(C4=NOC(c5cc(Cl)c(F)c(Cl)c5)(C(F)(F)F)C4)cc3C)ccc21 (centres unmarked) [Compound 14, 4-(5-(3,5-Dichloro-4-fluorophenyl)-5-(trifluoromethyl)-4,5-dihydroisoxazol-3-yl)-N-((3,3-diethyl-1-hydroxy-1,3-dihydrobenzo[c][1,2]oxaborol-6-yl)methyl)-2-methylbenzamide]	≥ 80
Cc1cc(C2=NOC(c3cc(Cl)cc(Cl)c3)(C(F)(F)F)C2)ccc1C(=O)NCc1ccc2c(c1)B(O)OC2(CF)CF (centres unmarked) [Compound 16, N-((3,3-Bis(fluoromethyl)-1-hydroxy-1,3-dihydrobenzo[c][1,2]oxaborol-6-yl)methyl)-4-(5-(3,5-dichlorophenyl)-5-(trifluoromethyl)-4,5-dihydroisoxazol-3-yl)-2-methylbenzamide]	≥ 80
Cc1cc(C2=NOC(c3cc(Cl)c(Cl)c(Cl)c3)(C(F)(F)F)C2)ccc1C(=O)NCc1ccc2c(c1)B(O)OC2(CF)CF (centres unmarked) [Compound 17a, N-((3,3-Bis(fluoromethyl)-1-hydroxy-1,3-dihydrobenzo[c][1,2]oxaborol-6-yl)methyl)-2-methyl-4-(5-(3,4,5-trichlorophenyl)-5-(trifluoromethyl)-4,5-dihydroisoxazol-3-yl)benzamide]	≥ 80
Cc1cc(C2=NOC(c3cc(Cl)c(Cl)c(Cl)c3)(C(F)(F)F)C2)ccc1C(=O)NCc1ccc2c(c1)B(O)OC21CCCC1 (centres unmarked) [Compound 18, N-((1-Hydroxy-1H-spiro[benzo[c][1,2]oxaborole-3,1′-cyclopentan]-6-yl)methyl)-2-methyl-4-(5-(3,4,5-trichlorophenyl)-5-(trifluoromethyl)-4,5-dihydroisoxazol-3-yl)benzamide]	≥ 80
Cc1cc(C2=NOC(c3cc(Cl)c(Cl)c(Cl)c3)(C(F)(F)F)C2)ccc1C(=O)NCCc1ccc2c(c1)B(O)OC2(C)C (centres unmarked) [Compound 19, N-(2-(1-Hydroxy-3,3-dimethyl-1,3-dihydrobenzo[c][1,2]oxaborol-6-yl)ethyl)-2-methyl-4-(5-(3,4,5-trichlorophenyl)-5-(trifluoromethyl)-4,5-dihydroisoxazol-3-yl)benzamide]	≥ 80
Cc1cc(C2=NOC(c3cc(Cl)c(F)c(Cl)c3)(C(F)(F)F)C2)ccc1C(=O)NCCc1ccc2c(c1)B(O)OC2(C)C (centres unmarked) [Compound 20, 4-(5-(3,5-Dichloro-4-fluorophenyl)-5-(trifluoromethyl)-4,5-dihydroisoxazol-3-yl)-N-(2-(1-hydroxy-3,3-dimethyl-1,3-dihydrobenzo[c][1,2]oxaborol-6-yl)ethyl)-2-methylbenzamide]	≥ 80
Cc1cc(C2=NOC(c3cc(Cl)c(Cl)c(Cl)c3)(C(F)(F)F)C2)ccc1C(=O)NC(C)c1ccc2c(c1)B(O)OC2(C)C (centres unmarked) [Compound 22a, N-(1-(1-Hydroxy-3,3-dimethyl-1,3-dihydrobenzo[c][1,2]oxaborol-6-yl)ethyl)-2-methyl-4-(5-(3,4,5-trichlorophenyl)-5-(trifluoromethyl)-4,5-dihydroisoxazol-3-yl)benzamide]	≥ 80
Cc1cc(C2=NOC(c3cc(Cl)c(Cl)c(Cl)c3)(C(F)(F)F)C2)ccc1C(=O)NCc1cc(F)c2c(c1)B(O)OC2(C)C (centres unmarked) [Compound 24, N-((4-fluoro-1-hydroxy-3,3-dimethyl-1,3-dihydrobenzo[c][1,2]oxaborol-6-yl)methyl)-2-methyl-4-(5-(3,4,5-trichlorophenyl)-5-(trifluoromethyl)-4,5-dihydroisoxazol-3-yl)benzamide]	≥ 80
